Measured values published in ChEMBL document CHEMBL1123116, “N-[[(Mercaptoacetyl)amino]benzoyl]glycines as mucolytic agents” (1985).

Tests used:
Assay type in all cases: functional
Homo sapiens [1] = species: Homo sapiens; experiment: Percent viscosity reduction after 15 min was tested for in vitro mucolytic activity using pooled human sputum adjusted to pH 7.5 and compared with saline by 0.03 M solution
Homo sapiens [2] = species: Homo sapiens; experiment: Percent viscosity reduction after 10 min was tested for in vitro mucolytic activity using pooled human sputum adjusted to pH 7.5 and compared with saline by 0.03 M solution of the compound
Homo sapiens [3] = species: Homo sapiens; experiment: Percent viscosity reduction after 15 min was tested for in vitro mucolytic activity using pooled human sputum adjusted to pH 7.5 and compared with saline by 0.03 M solution of the compound
Homo sapiens [4] = species: Homo sapiens; experiment: Percent viscosity reduction after 5 min was tested for in vitro mucolytic activity using pooled human sputum adjusted to pH 7.5 and compared with saline by 0.03 M solution of the compound
Homo sapiens [5] = species: Homo sapiens; experiment: Percent viscosity reduction after 15 min was tested for in vitro mucolytic activity using pooled human sputum adjusted to pH 7.5 and compared with 0.06 M NAC

`N.O=C(O)CNC(=O)c1cccc(NC(=O)CS)c1` was tested, and the Viscosity reduction (Homo sapiens [1]) was 59%.

With `NCCN.O=C(O)CNC(=O)c1cccc(NC(=O)CS)c1` the Viscosity reduction (Homo sapiens [1]) was 44%.

Work on `CC(=O)N[C@@H](CS)C(=O)O` [ACETYLCYSTEINE] yielded a Viscosity (Homo sapiens [2]) of 38%, a Viscosity (Homo sapiens [3]) of 31% and a Viscosity (Homo sapiens [4]) of 27%.

With `O=C(O)CNC(=O)c1ccc(NC(=O)CS)cc1` the Viscosity (Homo sapiens [5]) was 15% and the Viscosity reduction (Homo sapiens [1]) was 73%.

`O=C(O)CNC(=O)c1cccc(NC(=O)CS)c1` gave a Viscosity (Homo sapiens [2]) of 84%, a Viscosity (Homo sapiens [3]) of 90% and a Viscosity (Homo sapiens [4]) of 64%. It also gave a Viscosity reduction (Homo sapiens [1]) of 60%.

With `O=C([O-])CNC(=O)c1cccc(NC(=O)CS)c1.[Na+]` the Viscosity reduction (Homo sapiens [1]) was 56%.
